Results from paper PMC6925260 (Nature Communications, 2019).
pKd: −log10 of the molar value. Like-named read-outs stand apart in the source and are kept apart here.

Assays:
[1] = target: T1, K329A PPARγ LBD / SMRT peptide (Homo sapiens, UniProt P37231, K329A); test: Fluorescence anisotropy, SMRT peptide to K329A PPARγ LBD; assay type: binding
T1 construct: 6× His tag with TEV recognition site (N, cleaved yes); made in house; host or cells: E. coli BL21 (DE3) gold
T1 sequence (P37231 230-505 K329A): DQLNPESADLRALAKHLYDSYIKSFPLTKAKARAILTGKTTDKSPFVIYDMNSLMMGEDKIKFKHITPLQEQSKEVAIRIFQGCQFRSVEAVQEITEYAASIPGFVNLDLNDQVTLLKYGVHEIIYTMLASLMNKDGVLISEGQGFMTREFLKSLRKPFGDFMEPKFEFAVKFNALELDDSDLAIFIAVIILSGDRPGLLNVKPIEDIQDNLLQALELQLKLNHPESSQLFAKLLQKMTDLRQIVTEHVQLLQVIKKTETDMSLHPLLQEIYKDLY
Procedure: (§1) These samples were then plated as usual.

PPARg LBD N340A = test: Supplementary Figure 11: fluorescence anisotropy dissociation constants, N340A (peptide not given)
[2] = test system: PPARγ LBD, deletion of helix 12 / SMRT peptide; test: Fluorescence anisotropy, SMRT peptide to helix 12 deleted (DH12) PPARγ LBD; assay type: binding
Procedure: as §1

K329A PPARg LBD = test: Supplementary Figure 11: fluorescence anisotropy dissociation constants, K329A (peptide not given)
[3] = target: T2, PPARγC313A,Q322C-BTFA LBD / MED1 peptide (Homo sapiens, UniProt P37231, C313A/Q322C); test: Fluorescence anisotropy, MED1 peptide to PPARγC313A,Q322C-BTFA LBD; assay type: binding; conditions: Supp. Table 2
T2 construct: 6× His tag with TEV recognition site (N, cleaved yes); made in house; host or cells: E. coli BL21 (DE3) gold
Procedure: as §1

PPARg LBD DH12 = test: Supplementary Figure 11: fluorescence anisotropy dissociation constants, DH12 (peptide not given); assay type: binding
[4] = read-out: dissociation constant, data set FP 3 15 18 Inverse agonism part 2

Q: With `O=C(Nc1ccccc1)c1cc([N+](=O)[O-])ccc1Cl` [GW9662] as the molecule, how does the “SMRT Kd, wt vs K329A mean difference ± SE” value ([1]; Supp. Fig. 12) read?
A: -1916±631

Q: And the pKd ([1]; Supp. Fig. 12, read-out: SMRT dissociation constant average, K329A)?
A: 5.59

Q: And the pKd ([1]; run SMRT FP 4 5 18, read-out: SMRT dissociation constant, K329A)?
A: 5.88

Q: And the pKd ([1]; run SMRT FP 4 6 18, read-out: SMRT dissociation constant, K329A)?
A: 5.73

Q: What about the pKd ([1]; run SMRT FP 4 10 18, T0070907 value 5903 excluded by the authors, read-out: SMRT dissociation constant, K329A) of the same molecule?
A: 5.35

Q: What about the pKd (PPARg LBD N340A; read-out: dissociation constant, Average N340A values, average of the listed data sets) of the same molecule?
A: 6.31

Q: What about the pKd (PPARg LBD N340A; [4]) of the same molecule?
A: 6.47

Q: What about the pKd (PPARg LBD N340A; read-out: dissociation constant, data set PPARg LBD N340A 12 11 17) of the same molecule?
A: 6.20

Q: What about the “SMRT Kd, wt vs DH12 mean difference ± SE” value ([2]; Supp. Fig. 12) of the same molecule?
A: 314 ±631

Q: And the pKd ([2]; Supp. Fig. 12, read-out: SMRT dissociation constant average, DH12)?
A: 6.49

Q: What about the pKd ([2]; run SMRT FP 4 5 18, read-out: SMRT dissociation constant, DH12) of the same molecule?
A: 6.44

Q: What about the pKd ([2]; run SMRT FP 4 6 18, read-out: SMRT dissociation constant, DH12) of the same molecule?
A: 6.52

Q: And the pKd ([2]; run SMRT FP 4 10 18, read-out: SMRT dissociation constant, DH12)?
A: 6.53

Q: What about the “Kd mutant/Kd wt” value (K329A PPARg LBD; ratio of averages) of the same molecule?
A: 7.158

Q: What about the pKd (K329A PPARg LBD; read-out: dissociation constant, Average K329A values, average of the listed data sets) of the same molecule?
A: 5.74

Q: And the pKd (K329A PPARg LBD; [4])?
A: 5.74

Q: And the pKd (K329A PPARg LBD; read-out: dissociation constant, data set FP K329A K347A 3 20 18)?
A: 5.73

Q: And the “MED1 fold change (labeled/wt), PPARγC313A,Q322C-BTFA” value [3]?
A: 2.3

Q: And the pKd ([3]; read-out: MED1 Kd, PPARγC313A,Q322C-BTFA, covalent ligands T0070907, GW9662 expected to be apo-like)?
A: 5.01

Q: And the pKd (PPARg LBD DH12; data set 6-23-17, read-out: dissociation constant)?
A: 7.18

Q: What about the pKd (PPARg LBD DH12; data set 6-26-17 FP, read-out: dissociation constant) of the same molecule?
A: 6.81

Q: And the pKd (PPARg LBD DH12; data set FP 3 15 18 Inverse agonism part 2, read-out: dissociation constant)?
A: 7.57

Q: And the pKd (PPARg LBD DH12; data set PPARg LBD DH12 9-26-17, read-out: dissociation constant)?
A: 6.84

Q: And the pKd (PPARg LBD DH12; data set PPARg LBD DH12 10-24-17, read-out: dissociation constant)?
A: 7.14
